Values after ≈ are worked out from the molar mass of the structure shown.
What follows are molecules tested on measles virus (assay: microbe, parasite or virus in culture). Conditions: Measles morbillivirus, 24 h.

Compound | MIC50
CCOc1nn(-c2ccc(C3CC3)cn2)c(C)c1Oc1cccc(Cl)c1Cl [example 49, 5-cyclopropyl-2-(4-(2,3-dichlorophenoxy)-3-ethoxy-5-methyl-1H-pyrazol-1-yl)pyridine] | 0.0005 to 0.05 µM (≈ 0.000202 to 0.0202 µg/mL)
CCOc1nn(-c2ncc(CC)cn2)c(C)c1Oc1ccc(C(F)(F)F)cc1 [example 83, 2-(3-ethoxy-5-methyl-4-(4-(trifluoromethyl)phenoxy)-1H-pyrazol-1-yl)-5-ethylpyrimidine] | > 5 µM
CCC(CC)Oc1nn(-c2ncc(C3CC3)cn2)c(C)c1Cc1ccccc1 [example 141, 2-(4-benzyl-5-methyl-3-(pentan-3-yloxy)-1H-pyrazol-1-yl)-5-cyclopropylpyrimidine] | 0.0005 to 0.05 µM (≈ 0.000188 to 0.0188 µg/mL)
CCOc1nn(-c2ncc(CC)cn2)c(C)c1Oc1cc(Cl)cc(Cl)c1 [example 79, 2-(4-(3,5-dichlorophenoxy)-3-ethoxy-5-methyl-1H-pyrazol-1-yl)-5-ethylpyrimidine] | 0.5 to 5 µM (≈ 0.197 to 1.97 µg/mL)
CCOc1cc(C(=O)c2ccc(Cl)cc2)n(-c2ccccn2)n1 [example 149, (4-chlorophenyl)(3-ethoxy-1-(pyridin-2-yl)-1H-pyrazol-5-yl)methanone] | > 5 µM
CCOc1nn(-c2ccc(Br)cn2)c(C)c1Cc1ccccc1 [example 41, 2-(4-benzyl-3-ethoxy-5-methyl-1H-pyrazol-1-yl)-5-bromopyridine] | > 5 µM
CCOc1cc(Cc2ccccc2)n(-c2ncc(CC)cn2)n1 [example 2, 2-(5-benzyl-3-ethoxy-1H-pyrazol-1-yl)-5-ethylpyrimidine] | > 5 µM
CCOc1nn(-c2ccccn2)c(C)c1Cc1ccccc1 [example 30, 2-(4-benzyl-3-ethoxy-5-methyl-1H-pyrazol-1-yl)pyridine] | > 5 µM
CC(C)Oc1nn(-c2ccc(C3CC3)cn2)c(Cl)c1Oc1ccccc1 [example 191, 2-(5-chloro-3-isopropoxy-4-phenoxy-1H-pyrazol-1-yl)-5-cyclopropylpyridine] | 0.05 to 0.5 µM (≈ 0.0185 to 0.185 µg/mL)
CCOc1nn(-c2ccc(C)nc2)c(C)c1Cc1ccccc1 [example 124, 5-(4-benzyl-3-ethoxy-5-methyl-1H-pyrazol-1-yl)-2-methylpyridine] | 0.5 to 5 µM (≈ 0.154 to 1.54 µg/mL)
CCc1cnc(-n2nc(OC(C)C)c(Cc3cccc(F)c3)c2C)nc1 [example 11, 5-ethyl-2-(4-(3-fluorobenzyl)-3-isopropoxy-5-methyl-1H-pyrazol-1-yl)pyrimidine] | 0.0005 to 0.05 µM (≈ 0.000177 to 0.0177 µg/mL)
Cc1ccc(-n2nc(OC(C)C)c(Oc3c(F)cccc3F)c2C)nc1 [example 9A, 2-(4-(2,6-difluorophenoxy)-3-isopropoxy-5-methyl-1H-pyrazol-1-yl)-5-methylpyridine] | 0.0005 to 0.05 µM (≈ 0.00018 to 0.018 µg/mL)
CCOc1nn(-c2ncc(CC)cn2)c(C)c1I [example 106, 2-(3-ethoxy-4-iodo-5-methyl-1H-pyrazol-1-yl)-5-ethylpyrimidine] | > 5 µM
CCOc1nn(-c2ccccn2)c(C)c1-c1ccccc1Cl [example 155, 2-(4-(2-chlorophenyl)-3-ethoxy-5-methyl-1H-pyrazol-1-yl)pyridine] | > 5 µM
Cc1ccc(-n2nc(OC(C)C)c(Oc3c(F)cccc3F)c2C)cn1 [example 128, 5-(4-(2,6-difluorophenoxy)-3-isopropoxy-5-methyl-1H-pyrazol-1-yl)-2-methylpyridine] | 0.0005 to 0.05 µM (≈ 0.00018 to 0.018 µg/mL)
CC(C)Oc1nn(-c2ncc(C3CC3)cn2)cc1S(=O)(=O)c1ccccc1 [example 183, 5-cyclopropyl-2-(3-isopropoxy-4-(phenylsulfonyl)-1H-pyrazol-1-yl)pyrimidine] | 0.0005 to 0.05 µM (≈ 0.000192 to 0.0192 µg/mL)
CCOc1nn(-c2ccccn2)c(C)c1-c1ccc(C(F)(F)F)cc1 [example 159, 2-(3-ethoxy-5-methyl-4-(4-(trifluoromethyl)phenyl)-1H-pyrazol-1-yl)pyridine] | > 5 µM
CCOc1nn(-c2ncccc2F)c(C)c1Cc1ccccc1 [example 37, 2-(4-benzyl-3-ethoxy-5-methyl-1H-pyrazol-yl)-3-fluoropyridine] | > 5 µM
Cc1nn(-c2ncc(C3CC3)cn2)c(OC(C)C)c1Cc1ccccc1 [example 22, 2-(4-benzyl-5-isopropoxy-3-methyl-1H-pyrazol-1-yl)-5-cyclopropylpyrimidine] | 0.05 to 0.5 µM (≈ 0.0174 to 0.174 µg/mL)

Reference: patent EP2929883A1, “Pyrazole derivatives as dihydroorotate dehydrogenase (DHODH) inhibitors” (INSTITUT PASTEUR, priority 2014, dated 2015)
